In patent US20160009693A1, “HERBICIDAL COMPOUNDS” (SYNGENTA LIMITED, priority 2013, published 2016):

Key:
Format in all cases: in vivo
Settings in all cases: applied at 1000 g/h, evaluated after 13 days
[1] = system: Echinochloa crus-galli (ECHCG); test: Herbicidal glasshouse test, post-emergence, ECHCG
Method in brief: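 In this post-emergence glasshouse test, barnyard grass (ECHCG) was cultivated for 8 days under controlled conditions (24/16° C. day/night, 14 hours light, 65% humidity). It was then sprayed with an aqueous solution of the technical compound in acetone / water (50:50) with 0.5% Tween 20. Plants were kept under the same conditions and watered twice daily. After 13 days, percentage damage was rated on a five point scale (5=80-100%; 1=0-19%).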

[2] = system: Amaranthus retoflexus (AMARE); test: Herbicidal glasshouse test, pre-emergence, AMARE
Method in brief: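 This pre-emergence glasshouse herbicide test used Amaranthus retoflexus sown in standard soil. After one day of cultivation, an aqueous spray made from the technical ingredient in 50:50 acetone/water with 0.5% Tween 20 was applied. Pots stayed at 24/16° C., 14 hours light, 65% humidity, with twice-daily watering. Damage was rated on a five point scale (1=0-19% up to 5=80-100%).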

[3] = system: Amaranthus retoflexus (AMARE); test: Herbicidal glasshouse test, post-emergence, AMARE
Method in brief: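 This post-emergence glasshouse test used AMARE plants raised in standard soil for 8 days under controlled conditions (24/16° C. day/night, 14 hours light, 65% humidity). Foliage was sprayed with formulated compound in acetone/water (50:50) containing 0.5% Tween 20. Plants were then watered twice daily, and after 13 days percentage damage was rated on a five point scale.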

Solanum nigrum (SOLNI) [4] = test: Herbicidal glasshouse test, pre-emergence, SOLNI
Method in brief: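 This pre-emergence glasshouse herbicide test used Solanum nigrum sown in standard soil. One day after sowing, pots were sprayed with the compound in acetone/water (50:50) with 0.5% Tween 20. They were then grown at 24/16° C., with 14 hours light and 65% humidity, and watered twice daily. Percentage damage was scored after 13 days on a five point scale, where 5=80-100% and 1=0-19%.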

[5] = system: Ipomoea hederacea (IPOHE); test: Herbicidal glasshouse test, post-emergence, IPOHE
[6] = system: Alopecurus myosuroides (ALOMY); test: Herbicidal glasshouse test, pre-emergence, ALOMY
[7] = system: Ipomoea hederacea (IPOHE); test: Herbicidal glasshouse test, pre-emergence, IPOHE
Solanum nigrum (SOLNI) [8] = test: Herbicidal glasshouse test, post-emergence, SOLNI
Setaria faberi (SETFA) [9] = test: Herbicidal glasshouse test, post-emergence, SETFA
Method in brief: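 This post-emergence glasshouse herbicide test used potted Setaria faberi. Plants were cultivated for 8 days under controlled conditions (24/16° C. day/night, 14 hours light, 65% humidity) and then treated with an aqueous spray made from an acetone/water (50:50) solution containing 0.5% Tween 20. After 13 days of further growth with twice-daily watering, damage was rated on a five point scale (5=80-100%; 1=0-19%).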

[10] = system: Echinochloa crus-galli (ECHCG); test: Herbicidal glasshouse test, pre-emergence, ECHCG
Method in brief: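 In this pre-emergence glasshouse test, ECHCG seeds sown in pots of standard soil were sprayed one day after sowing with the test material in acetone/water (50:50) containing 0.5% Tween 20. Plants were kept at 24/16° C., 14 hours light, 65% humidity, and watered twice daily. Percentage damage was rated after 13 days on a 1–5 scale.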

Setaria faberi (SETFA) [11] = test: Herbicidal glasshouse test, pre-emergence, SETFA
[12] = system: Alopecurus myosuroides (ALOMY); test: Herbicidal glasshouse test, post-emergence, ALOMY

SMILES | POST Application ECHCG, percentage damage (five point scale) [1] | PRE Application AMARE, percentage damage (five point scale) [2] | POST Application AMARE, percentage damage (five point scale) [3] | PRE Application SOLNI, percentage damage (five point scale) (Solanum nigrum (SOLNI) [4]) | POST Application IPOHE, percentage damage (five point scale) [5] | PRE Application ALOMY, percentage damage (five point scale) [6] | PRE Application IPOHE, percentage damage (five point scale) [7] | POST Application SOLNI, percentage damage (five point scale) (Solanum nigrum (SOLNI) [8]) | POST Application SETFA, percentage damage (five point scale) (Setaria faberi (SETFA) [9]) | PRE Application ECHCG, percentage damage (five point scale) [10] | PRE Application SETFA, percentage damage (five point scale) (Setaria faberi (SETFA) [11]) | POST Application ALOMY, percentage damage (five point scale) [12]
Cn1nnnc1NC(=O)c1nn(C)c(=O)n(-c2cc(F)cc(F)c2)c1=O [Compound 1.042] | 5 (5=80-100%) | 5 (5=80-100%) | 5 (5=80-100%) | 5 (5=80-100%) | 5 (5=80-100%) | 5 (5=80-100%) | 5 (5=80-100%) | 5 (5=80-100%) | 5 (5=80-100%) | 5 (5=80-100%) | 5 (5=80-100%) | 5 (5=80-100%)
COc1ccc(-n2c(=O)c(C(=O)Nc3nnnn3C)nn(C)c2=O)cc1Cl [Compound 1.045] | 5 (5=80-100%) | 5 (5=80-100%) | 5 (5=80-100%) | 5 (5=80-100%) | 5 (5=80-100%) | 5 (5=80-100%) | 5 (5=80-100%) | 5 (5=80-100%) | 5 (5=80-100%) | 5 (5=80-100%) | 5 (5=80-100%) | 5 (5=80-100%)
Cn1cnnc1NC(=O)c1nn(C)c(=O)n(-c2ccccc2)c1=O [Compound 6.001] | 5 (5=80-100%) | 5 (5=80-100%) | 5 (5=80-100%) | 5 (5=80-100%) | 5 (5=80-100%) | 1 (1=0-19%) | 1 (1=0-19%) | 5 (5=80-100%) | 3 (3=40-59%) | 1 (1=0-19%) | 5 (5=80-100%) | 3 (3=40-59%)
Cn1cnnc1NC(=O)c1nn(C)c(=O)n(-c2cccc(F)c2F)c1=O [Compound 6.002] | 4 (4=60-79%) | 5 (5=80-100%) | 5 (5=80-100%) | 5 (5=80-100%) | 5 (5=80-100%) | 2 (2=20-39%) | 5 (5=80-100%) | 5 (5=80-100%) | 4 (4=60-79%) | 2 (2=20-39%) | 2 (2=20-39%) | 4 (4=60-79%)
Cc1ccc(Cn2c(=O)c(C(=O)Nc3nnnn3C)nn(C)c2=O)cc1 [Compound 1.051] | 5 (5=80-100%) | 5 (5=80-100%) | 5 (5=80-100%) | 5 (5=80-100%) | 5 (5=80-100%) | 5 (5=80-100%) | 5 (5=80-100%) | 5 (5=80-100%) | 2 (2=20-39%) | 5 (5=80-100%) | 1 (1=0-19%) | 5 (5=80-100%)
Cn1nnnc1NC(=O)c1nn(C)c(=O)n(-c2ccc(F)c(Cl)c2)c1=O [Compound 1.008] | 5 (5=80-100%) | 5 (5=80-100%) | 5 (5=80-100%) | 5 (5=80-100%) | 5 (5=80-100%) | 5 (5=80-100%) | 5 (5=80-100%) | 5 (5=80-100%) | 5 (5=80-100%) | 5 (5=80-100%) | 5 (5=80-100%) | 5 (5=80-100%)
CC(C)c1ccc(-n2c(=O)c(C(=O)Nc3nnnn3C)nn(C)c2=O)cc1 [Compound 1.046] | 5 (5=80-100%) | 5 (5=80-100%) | 5 (5=80-100%) | 5 (5=80-100%) | 5 (5=80-100%) | 5 (5=80-100%) | 5 (5=80-100%) | 5 (5=80-100%) | 5 (5=80-100%) | 5 (5=80-100%) | 5 (5=80-100%) | 5 (5=80-100%)
Cn1nnnc1NC(=O)c1nn(C)c(=O)n(Cc2cccc(F)c2F)c1=O [Compound 1.067] | 5 (5=80-100%) | 5 (5=80-100%) | 5 (5=80-100%) | 5 (5=80-100%) | 5 (5=80-100%) | 5 (5=80-100%) | 5 (5=80-100%) | 5 (5=80-100%) | 4 (4=60-79%) | 5 (5=80-100%) | 4 (4=60-79%) | 5 (5=80-100%)
C#CCn1c(=O)c(C(=O)Nc2nnnn2C)nn(C)c1=O [Compound 1.089] | 5 (5=80-100%) | 5 (5=80-100%) | 5 (5=80-100%) | 5 (5=80-100%) | 5 (5=80-100%) | 5 (5=80-100%) | 5 (5=80-100%) | 5 (5=80-100%) | 5 (5=80-100%) | 5 (5=80-100%) | 5 (5=80-100%) | 5 (5=80-100%)
Cn1nnnc1NC(=O)c1nn(C)c(=O)n(-c2ccc(Cl)cc2)c1=O [Compound 1.024] | 5 (5=80-100%) | 5 (5=80-100%) | 5 (5=80-100%) | 5 (5=80-100%) | 5 (5=80-100%) | 5 (5=80-100%) | 5 (5=80-100%) | 5 (5=80-100%) | 5 (5=80-100%) | 5 (5=80-100%) | 5 (5=80-100%) | 5 (5=80-100%)
